{"source": "paper PMC4157579", "about": "“Lysine Acetylation Controls Local Protein Conformation by Influencing Proline Isomerization” (Molecular Cell, 2014)", "tested_on": "chymotrypsin", "assay": "Chymotrypsin-coupled proline isomerization assay (pNA release)", "type": "biochemical", "details": "10 μl of 7.8 mM pNA peptide per 1 ml, 395 nm, every 0.6 s for 20 s, first 0.6–10.2 s, mean initial rate, n = 4–5", "source_text": "Figure 6 K14ac Promotes P16trans (A) Relative binding ± SEM (n = 2–11) assessed by surface plasmon resonance of purified recombinant Spt7 bromodomain (residues 363–619) to the indicated H3 peptides (11–26). (B) Coomassie-stained gel showing a pull-down experiment, quantified relative to the K18ac peptide, with the indicated H3 peptides and the purified recombinant Spt7 bromodomain (n = 3). (C) A chymotrypsin-coupled assay for proline isomers using synthetic hexamers based on GGKAPF-pNA (unmodified). pNA is released by chymotrypsin cleavage only from the trans-proline-containing peptide. (D) K14ac and substitutions at K14 influence isomerization at A15-P16 and pNA release, expressed as mean initial rate ± SEM (n = 4–5) over the first 0.6–10.2 s of the reaction. (E) Schematic showing how K14ac or the K14R substitution influence A15-P16 conformation. […]\nSaccharomyces cerevisiae strains used in this study are shown in Supplemental Experimental Procedures. […] Quantitation was performed using ImageJ software. […] The P16 proline isomerase assay was performed as described ([Shan et al., 1994]) using 10 μl of 7.8 mM pNA peptide (Proteogenix) solution per 1 ml assay reaction and pNA release monitored at 395 nm. […] Sensorgrams, binding curves, and Kd values were analyzed with BIA T100 and T200 evaluation software (GE Healthcare) using a 1:1 binding model. […]", "note": "Ends that are not written are not given here. * marks the point of attachment. pNA = O=[N+]([O-])c1ccc(N*)cc1", "data": [{"substance": "GGKAPF-pNA [unmodified peptide]", "values": [{"measurement": "Initial rate of cleavage (pNA release)", "result": "comparable to that reported previously in a similar assay"}]}]}
